Source: patent US6335443B1, “Chemical synthesis of exochelins” (Keystone Biomedical, Inc., priority 1998, dated 2002)

Biological target: 40% iron-saturated human transferrin (Homo sapiens, UniProt P02787)
Assay: Capacity to remove iron from 40% iron-saturated human transferrin
Format: biochemical

Sequence of 40% iron-saturated human transferrin (P02787 20-698): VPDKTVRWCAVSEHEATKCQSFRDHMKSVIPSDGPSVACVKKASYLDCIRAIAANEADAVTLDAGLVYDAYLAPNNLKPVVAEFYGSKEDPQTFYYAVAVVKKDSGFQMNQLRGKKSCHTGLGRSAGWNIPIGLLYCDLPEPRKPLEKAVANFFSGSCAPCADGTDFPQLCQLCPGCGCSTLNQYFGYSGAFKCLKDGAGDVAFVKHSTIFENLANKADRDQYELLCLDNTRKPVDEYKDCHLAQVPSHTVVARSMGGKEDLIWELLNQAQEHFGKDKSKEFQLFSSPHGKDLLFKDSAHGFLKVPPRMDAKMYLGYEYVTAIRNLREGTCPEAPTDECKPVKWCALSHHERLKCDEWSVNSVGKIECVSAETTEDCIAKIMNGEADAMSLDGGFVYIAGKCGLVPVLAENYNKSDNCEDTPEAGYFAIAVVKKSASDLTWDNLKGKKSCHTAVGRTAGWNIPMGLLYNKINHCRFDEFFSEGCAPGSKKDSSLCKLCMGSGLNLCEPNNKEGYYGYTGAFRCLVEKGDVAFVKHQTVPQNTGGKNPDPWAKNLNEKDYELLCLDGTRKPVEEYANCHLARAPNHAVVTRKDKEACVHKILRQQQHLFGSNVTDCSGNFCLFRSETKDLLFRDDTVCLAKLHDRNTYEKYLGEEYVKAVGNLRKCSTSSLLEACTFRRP

| SMILES | Iron-Saturation 0 h (Fe3+:desferri-Exochelin 10:1, PBS pH 7.4, listed as Synthetic Desferri-Exochelin 772SM(S)) | Iron-Saturation 0 h (Fe3+:desferri-Exochelin 10:1, PBS pH 7.4, listed as Synthetic Desferri-Exochelin 772SM(R)) |
| --- | --- | --- |
| COC(=O)CCCCCC(=O)N(O)CCCCC(NC(=O)C1COC(c2ccccc2O)=N1)C(=O)OC(C)CC(=O)NC1CCCCN(O)C1=O [Synthetic 772SM(S), Exochelin 772SM(S)] | 1.0% | – |
| COC(=O)CCCCCC(=O)N(O)CCCCC(NC(=O)C1COC(c2ccccc2O)=N1)C(=O)OC(C)CC(=O)NC1CCCCN(O)C1=O [Synthetic 772SM(R), Exochelin 772SM(R)] | – | 1.1% |
